# In patent publication US12441732B2, “Potassium salt crystal form B of phosphodiesterase type 5 inhibitor, and preparation method and use therefor” (Guangzhou Huazhen Pharmaceutical Co., Ltd, priority 2019, dated 2025):
# Like-named read-outs stand apart in the source and are kept apart here.
# What was measured:
# [1] = Dynamic vapor sorption (DVS) hygroscopicity test; format: physicochemical
# Method: Dynamic vapor adsorption (DVS) experiments were performed at 25° C. on a DVS Intrinsic instrument from SMS (Surface Measurement Systems) to test hygroscopicity of the potassium salt anhydrous crystal form B prepared in Embodiment 1. The test sample was first dried at 0% relative humidity (RH) to remove the adsorbed solvent or water, and then the test was started with a target RH of 0-95%.
# [2] = Dynamic solubility test in water, SGF, FaSSIF, FeSSIF at 37° C.; format: physicochemical; conditions: for solubility at 1 h / solubility at 4 h / solubility at 24 h: read-out: solubility (S)
# [3] = Pharmacokinetic experiment in rats after gavage; format: in vivo; conditions: male SD rats, gavage 2 mg·kg^−1
# Method: After 6 healthy male SD rats were fasted and drank water freely for 12 h, the rats was administered by gavage with the potassium salt crystal form B prepared in Embodiment 1 at 2 mg·kg^−1, and blood was taken from the Bulbus oculi venous plexus at 0.2 h, 0.5 h, 1 h, 1.5 h, 2 h, 4 h, 6 h and 8 h after administration. A solution of acetonitrile:water (1:1) was added, and centrifuging was conducted to take the supernatant for chromatographic analysis, at conditions: a chromatographic column: Thermo Fisher Hypersil gold column (3 μm, 20 mm×2.1 mm), an injection volume of 10 μL, a flow rate of 0.3 mL/min, a column temperature of 40° C., a mobile phase of water (1% formic acid) and methanol, gradient elution: methanol 10% (0 min); 10% (1 min); 90% (4 min); 90% (8 min); 10% (9 min), and with mass spectrometry conditions: multiple reaction monitoring (MRM), electrospray ionization (ESI), retention time (Dwell Time) of 200 ms, detection ion m/z 448.0-347.8. The data of blood drug concentration was analyzed with Winnolin6.3 software to obtain the pharmacokinetic parameters, thereby forming the mean blood drug concentration-time curve, as shown in FIG. 19.
# [4] = test system: UIRI model mice; test: Unilateral renal ischemia-reperfusion mouse model (UIRI model) of renal fibrosis; format: in vivo, BALB/c mice; conditions: 5 mg·kg^−1·d^−1 gavage, 10 days
# Description: Fifteen male BALB/c mice were randomly divided into: a Sham group (a sham-operation group) including 5 mice, and a surgical modeling group including 10 mice. Surgical method: mice were anesthetized and incised on the left side of the abdomen to expose the kidney, and the renal pedicle was bluntly dissected. In the sham-operation group, the renal pedicle was only exposed without clamping; in the modeling group, the left kidney renal pedicle was clamped with a non-invasive miniature arterial clamp for 30 min, and the mice were placed on a thermostat plate at 37° C. to maintain a constant body temperature during the clamping period, and the surgical incision was covered with saline-impregnated gauze to prevent dehydration of the renal tissue. The arterial clamp was removed after 30 min, and it was observed that the kidney changed gradually from purple-black to bright red within 1 min, indicating successful blood reperfusion. The kidney was returned to its original position and the wound was sutured. The mice in the modeling group were randomly divided into 2 groups: a UIRI group (a model group) and a treatment group of the potassium salt crystal form B of WYQ (5 mg/kg), 5 mice in each group.
# The first gavage administration was started 2 hours after the operation.
# (2) treatment group of the potassium salt crystal form B of WYQ: the potassium salt crystal form B of WYQ was diluted into a 1 mg/ml solution with normal saline and administered by gavage at the dose of 5 mg·kg^−1·d^−1; and
# administered once a day for consecutive 10 days.
# On the 10th after operation, mice were anesthetized in the same way, the right dorsum was incised to expose the right kidney, and the renal pedicle was ligated before removing the right kidney. The mice in the sham-operation group were only stripped of the perirenal membrane without removing the right kidney. On the 11th after operation, all the mice were sacrificed, the abdominal cavity was opened, and the left kidney tissues of the mice were peeled off, caring to maintain the integrity of the kidney. After the kidney is taken out, the kidney is quickly transferred to pre-chilled PBS, and the kidney is cut for different tests. The kidney is divided into four parts with a scalpel, wherein the upper and lower ventral poles of the kidney were put into liquid nitrogen for extraction of protein and mRNA, and detection of changes in the expression amount of fibrosis-related factors proteins and genes. After 2 hours, the kidney tissue was transferred and stored in the refrigerator at −80° C. The dorsal side of the kidney was fixed in 4% paraformaldehyde for making paraffin sections. The morphological changes of the kidney tissue were observed by HE staining and Masson staining, and the changes of the expression of fibrosis marker proteins in the kidney tissues were observed by immunohistochemistry.
smiles,measurement,setting,value
CCCCOC(=O)[N-]S(=O)(=O)c1cccc(-c2nc3c(CCC)nn(C)c3c(=O)[nH]2)c1.[K+] [potassium salt crystal form B],crystal form before and after the DVS test (XRPD),"[1]; DVS 0-95% RH, 25° C.",did not change
same,change in mass (water adsorption amount),"[1]; DVS, 25° C./80% RH",0.6%
same,hygroscopicity,"[1]; DVS, 25° C./80% RH",slight hygroscopicity
same,crystal form change after XRPD assay (FC),"[2]; FaSSIF, 1 h",yes
same,pH,"[2]; FaSSIF, 1 h",6.8
same,crystal form change after XRPD assay (FC),"[2]; FaSSIF, 4 h",yes
same,pH,"[2]; FaSSIF, 4 h",6.8
same,crystal form change after XRPD assay (FC),"[2]; FaSSIF, 24 h",yes
same,pH,"[2]; FaSSIF, 24 h",6.8
same,crystal form change after XRPD assay (FC),"[2]; FeSSIF, 1 h",yes
same,pH,"[2]; FeSSIF, 1 h",5.5
same,crystal form change after XRPD assay (FC),"[2]; FeSSIF, 4 h",yes
same,pH,"[2]; FeSSIF, 4 h",5.5
same,crystal form change after XRPD assay (FC),"[2]; FeSSIF, 24 h",yes
same,pH,"[2]; FeSSIF, 24 h",5.5
same,crystal form change after XRPD assay (FC),"[2]; SGF, 1 h",yes
same,pH,"[2]; SGF, 1 h",7.5
same,crystal form change after XRPD assay (FC),"[2]; SGF, 4 h",yes
same,pH,"[2]; SGF, 4 h",7.3
same,crystal form change after XRPD assay (FC),"[2]; SGF, 24 h",yes
same,pH,"[2]; SGF, 24 h",7.7
same,solubility at 1 h,"[2]; fasted-state simulated intestinal fluid (FaSSIF), thermodynamic from solid, FaSSIF, 1 h",10700 µg/mL
same,solubility at 4 h,"[2]; fasted-state simulated intestinal fluid (FaSSIF), thermodynamic from solid, FaSSIF, 4 h",9500 µg/mL
same,solubility at 24 h,"[2]; fasted-state simulated intestinal fluid (FaSSIF), thermodynamic from solid, FaSSIF, 24 h",9800 µg/mL
same,solubility at 1 h,"[2]; fed-state simulated intestinal fluid (FeSSIF), thermodynamic from solid, FeSSIF, 1 h",400 µg/mL
same,solubility at 4 h,"[2]; fed-state simulated intestinal fluid (FeSSIF), thermodynamic from solid, FeSSIF, 4 h",430 µg/mL
same,solubility at 24 h,"[2]; fed-state simulated intestinal fluid (FeSSIF), thermodynamic from solid, FeSSIF, 24 h",430 µg/mL
same,solubility at 1 h,"[2]; simulated gastric fluid (SGF), simulated gastric fluid, thermodynamic from solid, SGF, 1 h",6800 µg/mL
same,solubility at 4 h,"[2]; simulated gastric fluid (SGF), simulated gastric fluid, thermodynamic from solid, SGF, 4 h",7000 µg/mL
same,solubility at 24 h,"[2]; simulated gastric fluid (SGF), simulated gastric fluid, thermodynamic from solid, SGF, 24 h",7700 µg/mL
same,solubility at 1 h,"[2]; thermodynamic from solid, water, 1 h",12500 µg/mL
same,solubility at 4 h,"[2]; thermodynamic from solid, water, 4 h",13100 µg/mL
same,solubility at 24 h,"[2]; thermodynamic from solid, water, 24 h",12900 µg/mL
same,solubility,"[2]; thermodynamic from solid, water, read-out: solubility in water (the highest)",≤ 12900 µg/mL
same,crystal form change after XRPD assay (FC),"[2]; water, 1 h",weak
same,pH,"[2]; water, 1 h",7.6
same,crystal form change after XRPD assay (FC),"[2]; water, 4 h",weak
same,pH,"[2]; water, 4 h",7.4
same,crystal form change after XRPD assay (FC),"[2]; water, 24 h",weak
same,pH,"[2]; water, 24 h",7.4
same,time at which the peak drug concentration was reached,[3],0.63 ± 0.12 h
same,AUC(0-t),"[3]; rat, blood, po, read-out: AUC(0-4) within 8 h after administration",639 ± 72.4 ng·h/mL
same,Cmax,"[3]; rat, blood, po, read-out: maximum drug concentration (Cmax)",334 ± 23.7 ng/mL
same,half-life,"[3]; rat, blood, po, read-out: oral half-life (t112) (converted)",2.3 ± 0.27 h
same,AUC(0-inf),"[3]; rat, blood, po, read-out: total area under the mean blood drug concentration-time curve AUC0-∞",650 ± 70.8 ng·h/mL
same,Collagen I protein expression in kidney tissue (Western Blot) vs UIRI model,[4],significantly reduced
same,FN1 protein expression in kidney tissue (Western Blot) vs UIRI model,[4],significantly reduced
same,FN1 protein expression level in renal fibrotic lesions (immunohistochemistry),[4],significantly reduced
same,PAI-1 protein expression in kidney tissue (Western Blot) vs UIRI model,[4],significantly reduced
same,α-SMA protein expression in kidney tissue (Western Blot) vs UIRI model,[4],significantly reduced
same,α-SMA protein expression level in renal fibrotic lesions (immunohistochemistry),[4],significantly reduced
same,extracellular matrix deposition in the kidneys,[4]; HE/Masson staining,decreased
same,inflammatory cell infiltration in the kidneys,[4]; HE/Masson staining,significantly reduced
